Values of other authors, collected in patent publication US20230354819A1 (priority 2020, published 2023).
Bridge positions count the residues as written; N and C are the ends. Square brackets hold non-standard residues; d marks the D form. Peptide text beside a SMILES is read from it. * marks the point of attachment. ξ: configuration not given here. Pentadecanoyl(3ξ-OH,15-Gua) = N=C(N)NCCCCCCCCCCCCC(O)CC(=O)*; d(aThr) = C[C@@H](O)[C@@H](N)C(=O)O

System: cultured parsley cells
Settings: WO 2006/016558

Structure (SMILES) | induction of resistance reactions
CC(C)[C@@H]1NC(=O)[C@@H](C(C)C)NC(=O)[C@@H](NC(=O)CC(O)CCCCCCCCCCCCN=C(N)N)[C@@H](C)OC(=O)[C@@H](C)NC(=O)[C@@H](CC(N)=O)NC(=O)[C@@H]([C@@H](C)O)NC1=O (some centres unmarked) [fusaricidin A] ({Pentadecanoyl(3ξ-OH,15-Gua)}-T[dV]V[d(aThr)][dN][dA]; ester 1-C) | induce resistance reactions
CC(C)[C@@H]1NC(=O)[C@@H](C(C)C)NC(=O)[C@@H](NC(=O)CC(O)CCCCCCCCCCCCN=C(N)N)C(C)OC(=O)[C@@H](C)NC(=O)[C@@H](CCC(N)=O)NC(=O)[C@@H]([C@H](C)O)NC1=O (stereo in doubt) [fusaricidin B] | induce resistance reactions
